{"source": "paper PMC3975964", "about": "“Protective effect of a sesamin derivative, 3-bis (3-methoxybenzyl) butane-1, 4-diol on ischemic and hypoxic neuronal injury” (Journal of Biomedical Science, 2014)", "key": {"[1]": {"assay": "PAMPA-BBB membrane permeability assay", "experimental": "The blood–brain barrier limits drug access into the brain, due to tight junctions, membrane drug transporters, and unique lipid composition. Porcine whole-brain lipid is successfully used in passive permeability test for CNS drugs.\nThe parallel artificial membrane permeation assay (PAMPA) was carried out in a sandwich-like 96-well PAMPA plate formed by a top filter plate containing acceptor wells and a bottom plate containing donor wells. Each composite well was divided into two chambers: 300 μl of donor solution (test article or QC standards) at the bottom and 200 μl of acceptor buffer (PBS buffer containing 5% DMSO) at the top, separated by a polyvinylidene fluoride (PVDF, 0.45 μm pore size) membrane, coated with 4 μl of 20 mg/ml porcine polar brain lipid (PBL) in n-dodecane. […] The final DMSO concentration in working stock solution is 5%. Each compound was performed in triplicate. The test compound diffused from the donor well through the lipid membrane and into the acceptor well. The sandwich plate was placed with the plate lid and incubated at room temperature for approximately 18 h. After reaching diffusion equilibration, the PAMPA sandwich plate was disassembled and the concentration of drug in the acceptor, the donor, and the reference wells was determined using a TECAN microplate reader (Durham, NC, USA)."}, "focal cerebral ischemia": {"system": "focal cerebral ischemia", "assay": "Focal cerebral ischemia (MCAO), infarct size by TTC staining", "assay_type": "in vivo, Sprague–Dawley rats", "conditions": "SD rats, BBD 10 mg/kg i.p. 90 min after MCAO; ischemia group 16.1%", "experimental": "Twenty-four male Sprague-Dawley (SD) rats (200~250 gm) were purchased from National Animal Center, Taipei, Taiwan and randomly divided into the control (normal saline), and BBD groups. The experiment was approved by Institutional Animal Care and Use Committee, Taichung Veterans General Hospital (IACUC LA-97490). Rats were injected intraperitoneally (i.p.) with BBD (10 mg/kg) 90 min after MACO experiment. Each SD rat was anesthetized with chlorohydrate (400 mg/kg) i.p. and its body temperature was maintained at 37°C with a heating pad (CMA/150). A midline neck incision was made and the right carotid artery was exposed and separated from the vago-sympathetic trunk. The right carotid artery was loosely encircled with a 4-O suture for later occlusion. The SD rat's head was placed in a stereotaxic frame (David Kopf, CA, USA) with the nose bar positioned 4.0 mm below the horizontal line. Following a midline incision, the skull was partially removed to expose the right middle cerebral artery. The middle cerebral artery was loosely encircled with an 8-O suture for later occlusion. A focal cerebral ischemia was induced by occlusion of the right common carotid artery and the right cerebral artery (MCAO) for 60 min, followed by reperfusion. […]"}, "BV-2 cells": {"system": "BV-2 cells", "assay": "MTT cell viability under hypoxia, BV-2", "assay_type": "cell-based, murine", "conditions": "hypoxia 30 min, BBD 1, 10, 20 μM", "experimental": "(§1) Murine BV-2 microglial cell line was maintained in DMEM supplemented with 10% (v/v) FBS, 100 U/ml penicillin and 100 μg/ml streptomycin (P/S) in a humidified incubator under 5% CO2 at 37°C. Rat pheochromacytoma PC12 cell line was maintained in DMEM supplemented with 10% FBS, 5% horse serum, P/S at 37°C under 5% CO2. Confluent cultures were passaged by trypsinization. In all experiments, the cells were treated with BBD immediately before hypoxia. BBD was dissolved in DMSO. The final concentration of DMSO added to cells never exceeded 0.1% (v/v).\n(§2) On the day of experiment, culture media were replaced with glucose-free DMEM, then, gassed with 85% N2, 10% H2, and 5% CO2 for various time periods in the absence or presence of various doses of BBD.\nCell viability was measured using blue formazan that was metabolized from colorless 3-(4,5-dimethyl-thiazol-2-yl)-2,5-diphenyl tetrazolium bromide (MTT) by mitochondrial dehydrogenases, which are active only in live cells. PC12 or BV2 cells were preincubated in 24-well plates at a density of 5 × 10^5 cells per well for 24 h. […] One hour later, 200 μl of solubilization solution were added to each well and absorption values read at 540 nm on microtiter plate reader (spectraMAX 340, Molecular Devices, Sunnyvale, CA, USA). Data were expressed as the mean percent of viable cells vs. control."}, "PC12 cells": {"system": "PC12 cells", "assay": "LDH release under hypoxia, PC12", "assay_type": "cell-based, rat", "conditions": "BBD 1, 10, 20 μM", "experimental": "as §1, §2\nCytotoxicity was determined by measuring the release of LDH. PC12 or BV-2 cells treated with various concentrations of BBD were stressed with hypoxia for one hour and the supernatant was then assayed for LDH activity. An absorbance was read at 490/630 nm using a spectraMAX 340 microtiter plate reader. Data were expressed as the mean percent of viable cells vs. the control."}, "ROS in PC12 cells": {"system": "ROS in PC12 cells", "assay": "Hypoxia-induced ROS generation (DCF), PC12", "assay_type": "cell-based, rat", "conditions": "hypoxia 30 min, BBD 1, 10, 20 μM", "experimental": "as §2\nIntracellular accumulation of ROS was determined using H2DCF-DA, which is a nonfluorescent compound that accumulates in cells following deacetylation. H2DCF then reacts with ROS to form fluorescent dichlorofluorescein (DCF). PC12 cells were plated in 96-well plates and grown for 24 h before addition of DMEM plus 10 μM H2DCF-DA, incubated for 60 min at 37°C, and treated with various concentrations of BBD for hypoxia 30 min. Cells were then washed twice at room temperature with Hank’s balanced salt solution (HBSS without phenol red). Cellular fluorescence was monitored on a Fluoroskan Ascent fluorometer (Labsystems Oy, Helsinki, Finland) using an excitation wavelength of 485 nm and emission wavelength of 538 nm."}, "MDA in BV-2 cells": {"system": "MDA in BV-2 cells", "assay": "Lipid peroxidation (MDA) under hypoxia, BV-2", "assay_type": "cell-based, murine", "conditions": "hypoxia 30 min, BBD 1, 10, 20 μM"}, "IL-6": {"system": "IL-6", "assay": "Hypoxia-induced IL-6 production (ELISA), BV-2", "assay_type": "cell-based, murine", "experimental": "as §2\nCytokines (IL-1β, IL-6) and PGE2 were measured using ELISA kits (R&D, Minneapolis, MN, USA). The absorbance at 450 nm was determined using a microplate reader (spectraMAX 340)."}}}
{"molecule": "COc1cccc(CC(CO)C(CO)Cc2cccc(OC)c2)c1", "note": "(stereo not drawn) [BBD, 3-bis (3-methoxybenzyl) butane-1,4-diol]", "values": [{"measurement": "Classification", "setting": "[1]; PAMPA-BBB predicted BBB permeation class", "result": "BBB+ (BBB + compound (high BBB permeation predicted): Pe (10^-6 cm s^-1) > 4.0)"}, {"measurement": "Papp at 100 μg/ml", "setting": "[1]; pig, PAMPA, pH 7.4", "result": "20.9 ± 3.05", "unit": "×10⁻⁶ cm/s"}, {"measurement": "infarct size", "setting": "focal cerebral ischemia", "result": 4.9, "unit": "%"}, {"measurement": "cell viability (MTT) under hypoxia", "setting": "BV-2 cells", "result": "increased"}, {"measurement": "hypoxia-induced LDH release", "setting": "PC12 cells", "result": "decreased"}, {"measurement": "hypoxia-induced ROS accumulation (DCF signal)", "setting": "ROS in PC12 cells", "result": "decreasing the ROS accumulation"}, {"measurement": "hypoxia-induced increase in MDA level", "setting": "MDA in BV-2 cells", "result": "suppressed"}, {"measurement": "hypoxia-induced IL-6 production", "setting": "IL-6; BV-2 cells, hypoxia 30 min, BBD 1, 10, 20 μM", "result": "dose-dependently decreased"}, {"measurement": "inhibition of hypoxia-induced IL-6 production", "setting": "IL-6; hypoxia, concentration not given", "result": "40-50%"}]}
